Values of other authors, collected in US20210321634A1, “Lactobacillus Acidipiscis, Fermented Soymilk, and Preparation Method and Use Thereof” (Hebei Agricultural University, priority 2020, published 2021).

Experiments:
[1] = compared with daidzein and genistein
[2] = compared with daidzein

Row | SMILES | DPPH free radical scavenging activity [1] | cardiovascular protective activity [2]
1 | O=C1c2c(O)cc(O)cc2OCC1c1ccc(O)cc1 (stereo not drawn) [DHG, dihydrogenistein] | significantly higher | –
2 | O=C1c2ccc(O)cc2OCC1c1ccc(O)cc1 (stereo not drawn) [DHD, dihydrodaidzein] | significantly higher | significantly higher
